Results: article PMC5678585, “Screening a protein kinase inhibitor library against Plasmodium falciparum” (Malaria Journal, 2017)
Where a name gives a salt, the structure may show the parent alone. Read-outs that look alike come from different tables or passages of the source.

Test system: Plasmodium falciparum 3D7
Assay: microbe, parasite or virus in culture
Settings: for inhibition at 5 µM: 3D7, read-out: Percentage inhibition of the growth of Plasmodium falciparum, Prestwick Library pilot screen, screening conc. 0.005 mM, duplicate; for inhibition at 6 µM: 3D7, read-out: Percentage inhibition of the growth of Plasmodium falciparum, Prestwick Library pilot screen, screening conc. 0.006 mM, duplicate; for Percentage inhibition of the growth of Plasmodium falciparum: Prestwick Library pilot screen, duplicate; for inhibition at 3 µM: 3D7, read-out: Percentage inhibition of the growth of Plasmodium falciparum, Prestwick Library pilot screen, screening conc. 0.003 mM, duplicate; for inhibition at 8 µM: 3D7, read-out: Percentage inhibition of the growth of Plasmodium falciparum, Prestwick Library pilot screen, screening conc. 0.008 mM, duplicate
Experimental: Growth inhibition was quantified using a fluorescence assay utilizing the binding of SYBR Green I to double stranded DNA, which emits a fluorescent signal at 528 nm after excitation at 485 nm. The SYBR Green assay system was adapted to maximize robustness and to align with available automation systems. The Prestwick Library then used as a pilot screen to validate the performance of the optimized assay. […] Single point screens were carried out, and the potency of compounds of interest was determined in duplicate on two independent occasions. A 96-well [^3H]-Hypoxanthine incorporation assay was also developed as a secondary assay in order to validate key compounds from each hit series in an orthogonal platform.
All data were processed using IDBS ActivityBase. […] The formula used to calculate Z’ is 1-3×(StDev_high+StDev_low)/ABS(Mean_high-Mean_low) .
Two independent assays were run.

[1] = Plasmodium falciparum, 3D7, read-out: Percentage inhibition of the growth of Plasmodium falciparum, Prestwick Library pilot screen, screening conc. 0.004 mM, duplicate

O=C1C(O)=C([C@H]2CC[C@H](c3ccc(Cl)cc3)CC2)C(=O)c2ccccc21 [Atovaquone, reference compound]
inhibition at 5 µM (Plasmodium falciparum): 99 ± 2%

COc1ccc(CCN2CCC(Nc3nc4ccccc4n3Cc3ccc(F)cc3)CC2)cc1 [Astemizole, reference compound]
inhibition at 4 µM [1]: 97.3 ± 0.8%

CCCCCCCCNC(C)C(O)c1ccc(SC(C)C)cc1 (centres unmarked) [Suloctidil, reference compound]
inhibition at 6 µM (Plasmodium falciparum): 101 ± 1%

CCC(=O)O[C@]1(C(=O)CCl)[C@@H](C)C[C@H]2[C@@H]3CCC4=CC(=O)C=C[C@]4(C)[C@@]3(F)[C@@H](O)C[C@@]21C [Clobetasol propionate, reference compound]
inhibition at 4 µM [1]: 50 ± 16%

COc1ccc2cc3[n+](cc2c1OC)CCc1cc2c(cc1-3)OCO2 [Berberine chloride, reference compound]
inhibition at 5 µM (Plasmodium falciparum): 99 ± 2%

C=C[C@H]1CN2CC[C@H]1C[C@H]2[C@H](O)c1ccnc2ccccc12 [(-)-Cinchonidine, reference compound]
Percentage inhibition of the growth of Plasmodium falciparum (screening conc. 0.007 mM): 100 ± 1%

CCN(CC)CCCC(C)Nc1c2ccc(Cl)cc2nc2ccc(OC)cc12 (centres unmarked) [Quinacrine dihydrochloride dihydrate, reference compound]
inhibition at 4 µM [1]: 100 ± 2%

N=C(N)c1ccc(OCCCCCOc2ccc(C(=N)N)cc2)cc1 [Pentamidine isethionate, reference compound]
inhibition at 3 µM (Plasmodium falciparum): 100 ± 4%

C[N+](C)(CCOc1ccccc1)Cc1ccccc1.O=C([O-])c1cc2ccccc2cc1O [Bephenium hydroxynaphthoate, reference compound]
Percentage inhibition of the growth of Plasmodium falciparum (screening conc. 0.005 mM): 55.1 ± 0.5%

COc1cccc2c1C(=O)c1c(O)c3c(c(O)c1C2=O)C[C@@](O)(C(=O)CO)C[C@@H]3O[C@H]1C[C@H](N)[C@H](O)[C@H](C)O1 [Doxorubicin hydrochloride, reference compound]
inhibition at 3 µM (Plasmodium falciparum): 137 ± 2%

CN(Cc1cnc2nc(N)nc(N)c2n1)c1ccc(C(=O)N[C@@H](CCC(=O)O)C(=O)O)cc1 [Methotrexate, reference compound]
inhibition at 4 µM [1]: 100.9 ± 0.7%

CC[C@H]1CN2CCc3cc(OC)c(OC)cc3[C@@H]2C[C@@H]1C[C@H]1NCCc2cc(OC)c(OC)cc21 [Emetine dihydrochloride, reference compound]
inhibition at 4 µM [1]: 103 ± 2%

COc1cccc2c1C(=O)c1c(O)c3c(c(O)c1C2=O)C[C@@](O)(C(C)=O)C[C@@H]3O[C@H]1C[C@H](N)[C@H](O)[C@H](C)O1 [Daunorubicin hydrochloride, reference compound]
inhibition at 4 µM (Plasmodium falciparum, read-out: Percentage inhibition of the growth of Plasmodium falciparum): 132 ± 1%

CC(=O)O[C@H]1C(=O)[C@@]2(C)[C@H]([C@H](OC(=O)c3ccccc3)[C@]3(O)C[C@H](OC(=O)[C@H](O)[C@@H](NC(=O)c4ccccc4)c4ccccc4)C(C)=C1C3(C)C)[C@]1(OC(C)=O)CO[C@@H]1C[C@@H]2O [Paclitaxel, reference compound]
inhibition at 2 µM (Plasmodium falciparum, 3D7, read-out: Percentage inhibition of the growth of Plasmodium falciparum, Prestwick Library pilot screen, screening conc. 0.002 mM, duplicate): 65 ± 2%

OC(c1cc(C(F)(F)F)nc2c(C(F)(F)F)cccc12)C1CCCCN1 (centres unmarked) [Mefloquine hydrochloride, reference compound]
inhibition at 5 µM (Plasmodium falciparum): 97.4 ± 0.4%

COc1c(C)c2c(c(O)c1C/C=C(\C)CCC(=O)O)C(=O)OC2 [Mycophenolic acid, reference compound]
inhibition at 6 µM (Plasmodium falciparum): 63 ± 3%

C=C[C@H]1C[N@@]2CC[C@H]1C[C@@H]2[C@@H](O)c1ccnc2ccccc12 [Cinchonine, reference compound]
inhibition at 7 µM (Plasmodium falciparum, 3D7, read-out: Percentage inhibition of the growth of Plasmodium falciparum, Prestwick Library pilot screen, screening conc. 0.007 mM, duplicate): 101 ± 5%

C[N+](C)(C)CCCCCCCCCC[N+](C)(C)C [Decamethonium bromide, reference compound]
inhibition at 5 µM (Plasmodium falciparum): 64 ± 3%

Verteporfin [reference compound]
Percentage inhibition of the growth of Plasmodium falciparum (screening conc. 0.003 mM): 95 ± 2%

CCCNCC(O)COc1ccccc1C(=O)CCc1ccccc1 (centres unmarked) [Propafenone hydrochloride, reference compound]
inhibition at 5 µM (Plasmodium falciparum): 99 ± 1%

Nc1nc(N)c2nc(-c3ccccc3)c(N)nc2n1 [Triamterene, reference compound]
inhibition at 8 µM (Plasmodium falciparum): 69 ± 1%

CCc1nc(N)nc(N)c1-c1ccc(Cl)cc1 [Pyrimethamine, reference compound]
inhibition at 8 µM (Plasmodium falciparum): 101 ± 2%

CN1C[C@H](CNC(=O)OCc2ccccc2)C[C@@H]2c3cccc4c3c(cn4C)C[C@H]21 [Metergoline, reference compound]
inhibition at 5 µM (Plasmodium falciparum): 56 ± 2%
